Converted amounts (≈) assume the structure as drawn. Like-named read-outs stand apart in the source and are kept apart here.
Legend:
[1] = test system: E. coli GC 2236; assay: MIC, broth microdilution; details: Escherichia coli
[2] = test system: E. coli GC 2233; assay: MIC, broth microdilution; details: Escherichia coli
[3] = test system: E. coli GC 2234; assay: MIC, broth microdilution; details: Escherichia coli
[4] = test system: E. coli GC 2272; assay: MIC, broth microdilution; details: Escherichia coli
[5] = test system: E. coli GC 6465; assay: MIC, broth microdilution; details: Escherichia coli
[6] = test system: E. coli GC 1073; assay: MIC, broth microdilution; details: Escherichia coli
[7] = test system: S. aureus GC 1131; assay: MIC, broth microdilution; details: Staphylococcus aureus
[8] = test system: S. aureus GC 6466; assay: MIC, broth microdilution; details: Staphylococcus aureus
[9] = test system: S. aureus GC 1079; assay: MIC, broth microdilution; details: Staphylococcus aureus
[10] = test system: S. aureus GC 4536; assay: MIC, broth microdilution; details: Staphylococcus aureus
[11] = test system: S. aureus GC 6469; assay: MIC, broth microdilution; details: Staphylococcus aureus
[12] = test system: S. epidermidis GC 4935; assay: MIC, broth microdilution; details: Staphylococcus epidermidis
[13] = test system: E. faecalis GC 4555; assay: MIC, broth microdilution; details: Enterococcus faecalis
[14] = test system: E. faecalis GC 2265; assay: MIC, broth microdilution; details: Enterococcus faecalis
[15] = test system: E. faecium GC 2243; assay: MIC, broth microdilution; details: Enterococcus faecium
[16] = test system: S. pneumoniae+ GC 4465; assay: MIC, broth microdilution; details: Streptococcus pneumoniae
[17] = test system: S. pyogenes GC 4563; assay: MIC, broth microdilution; details: Streptococcus pyogenes
[18] = test system: c. albicans GC 3066; assay: MIC, broth microdilution
[19] = test system: E. coli; assay: Range of MIC for E. coli strains; details: Escherichia coli
[20] = test system: Staph.; assay: Range of MIC for Staph. strains, including MRSA; details: Staphylococcus aureus

MIC ([1]; GC2236, read-out: MINIMAL INHIBITORY CONCENTRATION MIC, Human Serum): 8 µg/mL (≈ 10.4 µM)
MIC ([1]; GC2236, read-out: MINIMAL INHIBITORY CONCENTRATION MIC, Mouse Serum): 1 µg/mL (≈ 1.3 µM)
MIC ([1]; GC2236, read-out: MINIMAL INHIBITORY CONCENTRATION MIC, Water): 32 µg/mL (≈ 41.6 µM)
MIC ([2]; GC2233, read-out: MINIMAL INHIBITORY CONCENTRATION MIC, Human Serum): 8 µg/mL (≈ 10.4 µM)
MIC ([2]; GC2233, read-out: MINIMAL INHIBITORY CONCENTRATION MIC, Mouse Serum): 1 µg/mL (≈ 1.3 µM)
MIC ([2]; GC2233, read-out: MINIMAL INHIBITORY CONCENTRATION MIC, Water): 32 µg/mL (≈ 41.6 µM)
MIC ([3]; GC2234, read-out: MINIMAL INHIBITORY CONCENTRATION MIC, Human Serum): 8 µg/mL (≈ 10.4 µM)
MIC ([3]; GC2234, read-out: MINIMAL INHIBITORY CONCENTRATION MIC, Mouse Serum): 1 µg/mL (≈ 1.3 µM)
MIC ([3]; GC2234, read-out: MINIMAL INHIBITORY CONCENTRATION MIC, Water): 64 µg/mL (≈ 83.1 µM)
MIC ([4]; GC2272, read-out: MINIMAL INHIBITORY CONCENTRATION MIC, Human Serum): 4 µg/mL (≈ 5.2 µM)
MIC ([4]; GC2272, read-out: MINIMAL INHIBITORY CONCENTRATION MIC, Mouse Serum): 1 µg/mL (≈ 1.3 µM)
MIC ([4]; GC2272, read-out: MINIMAL INHIBITORY CONCENTRATION MIC, Water): 32 µg/mL (≈ 41.6 µM)
MIC ([5]; GC6465, read-out: MINIMAL INHIBITORY CONCENTRATION MIC, Human Serum): 16 µg/mL (≈ 20.8 µM)
MIC ([5]; GC6465, read-out: MINIMAL INHIBITORY CONCENTRATION MIC, Mouse Serum): 2 µg/mL (≈ 2.6 µM)
MIC ([5]; GC6465, read-out: MINIMAL INHIBITORY CONCENTRATION MIC, Water): > 64 µg/mL
MIC ([6]; GC1073, read-out: MINIMAL INHIBITORY CONCENTRATION MIC, Human Serum): 8 µg/mL (≈ 10.4 µM)
MIC ([6]; GC1073, read-out: MINIMAL INHIBITORY CONCENTRATION MIC, Mouse Serum): 2 µg/mL (≈ 2.6 µM)
MIC ([6]; GC1073, read-out: MINIMAL INHIBITORY CONCENTRATION MIC, Water): 32 µg/mL (≈ 41.6 µM)
MIC ([7]; GC1131, read-out: MINIMAL INHIBITORY CONCENTRATION MIC, Human Serum): 0.5 µg/mL (≈ 0.649 µM)
MIC ([7]; GC1131, read-out: MINIMAL INHIBITORY CONCENTRATION MIC, Mouse Serum): 0.5 µg/mL (≈ 0.649 µM)
MIC ([7]; GC1131, read-out: MINIMAL INHIBITORY CONCENTRATION MIC, Water): 1 µg/mL (≈ 1.3 µM)
MIC ([8]; GC6466, read-out: MINIMAL INHIBITORY CONCENTRATION MIC, Human Serum): 0.25 µg/mL (≈ 0.325 µM)
MIC ([8]; GC6466, read-out: MINIMAL INHIBITORY CONCENTRATION MIC, Mouse Serum): 0.25 µg/mL (≈ 0.325 µM)
MIC ([8]; GC6466, read-out: MINIMAL INHIBITORY CONCENTRATION MIC, Water): 0.25 µg/mL (≈ 0.325 µM)
MIC ([9]; GC1079, read-out: MINIMAL INHIBITORY CONCENTRATION MIC, Human Serum): 0.5 µg/mL (≈ 0.649 µM)
MIC ([9]; GC1079, read-out: MINIMAL INHIBITORY CONCENTRATION MIC, Mouse Serum): 0.5 µg/mL (≈ 0.649 µM)
MIC ([9]; GC1079, read-out: MINIMAL INHIBITORY CONCENTRATION MIC, Water): 2 µg/mL (≈ 2.6 µM)
MIC ([10]; GC4536, read-out: MINIMAL INHIBITORY CONCENTRATION MIC, Human Serum): 0.25 µg/mL (≈ 0.325 µM)
MIC ([10]; GC4536, read-out: MINIMAL INHIBITORY CONCENTRATION MIC, Mouse Serum): 0.25 µg/mL (≈ 0.325 µM)
MIC ([10]; GC4536, read-out: MINIMAL INHIBITORY CONCENTRATION MIC, Water): 0.5 µg/mL (≈ 0.649 µM)
MIC ([11]; GC6469, read-out: MINIMAL INHIBITORY CONCENTRATION MIC, Human Serum): 1 µg/mL (≈ 1.3 µM)
MIC ([11]; GC6469, read-out: MINIMAL INHIBITORY CONCENTRATION MIC, Mouse Serum): 1 µg/mL (≈ 1.3 µM)
MIC ([11]; GC6469, read-out: MINIMAL INHIBITORY CONCENTRATION MIC, Water): 2 µg/mL (≈ 2.6 µM)
MIC ([12]; GC4935, read-out: MINIMAL INHIBITORY CONCENTRATION MIC, Human Serum): 2 µg/mL (≈ 2.6 µM)
MIC ([12]; GC4935, read-out: MINIMAL INHIBITORY CONCENTRATION MIC, Mouse Serum): 2 µg/mL (≈ 2.6 µM)
MIC ([12]; GC4935, read-out: MINIMAL INHIBITORY CONCENTRATION MIC, Water): 4 µg/mL (≈ 5.2 µM)
MIC ([13]; GC4555, read-out: MINIMAL INHIBITORY CONCENTRATION MIC, Human Serum): 2 µg/mL (≈ 2.6 µM)
MIC ([13]; GC4555, read-out: MINIMAL INHIBITORY CONCENTRATION MIC, Mouse Serum): 1 µg/mL (≈ 1.3 µM)
MIC ([13]; GC4555, read-out: MINIMAL INHIBITORY CONCENTRATION MIC, Water): 4 µg/mL (≈ 5.2 µM)
MIC ([14]; GC2265, read-out: MINIMAL INHIBITORY CONCENTRATION MIC, Human Serum): 2 µg/mL (≈ 2.6 µM)
MIC ([14]; GC2265, read-out: MINIMAL INHIBITORY CONCENTRATION MIC, Mouse Serum): 1 µg/mL (≈ 1.3 µM)
MIC ([14]; GC2265, read-out: MINIMAL INHIBITORY CONCENTRATION MIC, Water): 4 µg/mL (≈ 5.2 µM)
MIC ([15]; GC2243, read-out: MINIMAL INHIBITORY CONCENTRATION MIC, Human Serum): 0.25 µg/mL (≈ 0.325 µM)
MIC ([15]; GC2243, read-out: MINIMAL INHIBITORY CONCENTRATION MIC, Mouse Serum): 0.25 µg/mL (≈ 0.325 µM)
MIC ([15]; GC2243, read-out: MINIMAL INHIBITORY CONCENTRATION MIC, Water): 0.5 µg/mL (≈ 0.649 µM)
MIC ([16]; read-out: MINIMAL INHIBITORY CONCENTRATION MIC, Human Serum): 0.5 µg/mL (≈ 0.649 µM)
MIC ([16]; read-out: MINIMAL INHIBITORY CONCENTRATION MIC, Mouse Serum): 0.5 µg/mL (≈ 0.649 µM)
MIC ([16]; read-out: MINIMAL INHIBITORY CONCENTRATION MIC, Water): 0.5 µg/mL (≈ 0.649 µM)
MIC ([17]; GC4563, read-out: MINIMAL INHIBITORY CONCENTRATION MIC, Human Serum): 0.12 µg/mL (≈ 0.156 µM)
MIC ([17]; GC4563, read-out: MINIMAL INHIBITORY CONCENTRATION MIC, Mouse Serum): 0.12 µg/mL (≈ 0.156 µM)
MIC ([17]; GC4563, read-out: MINIMAL INHIBITORY CONCENTRATION MIC, Water): 0.25 µg/mL (≈ 0.325 µM)
MIC ([18]; Candida albicans, GC3066, read-out: MINIMAL INHIBITORY CONCENTRATION MIC): > 64 µg/mL
MINIMAL INHIBITORY CONCENTRATION MIC ([18]; Human Serum): >64 UG/ML
MINIMAL INHIBITORY CONCENTRATION MIC ([18]; Mouse Serum): >64 UG/ML
MIC ([19]; 20 h, read-out: Range of MIC, E. coli (Mouse Serum)): 1 to 2 µg/mL (≈ 1.3 to 2.6 µM)
MIC ([19]; read-out: Minimum inhibitory concentration (MIC), E. coli (Human Serum)): 4 to 16 µg/mL (≈ 5.2 to 20.8 µM)
MIC ([19]; read-out: Minimum inhibitory concentration (MIC), E. coli (water)): 32 to 64 µg/mL (≈ 41.6 to 83.1 µM)
MIC ([19]; read-out: Range of MIC, E. coli (Water)): 32 to 64 µg/mL (≈ 41.6 to 83.1 µM)
MIC ([20]; MRSA, read-out: Range of MIC, Staph (Mouse Serum)): 0.25 to 2 µg/mL (≈ 0.325 to 2.6 µM)
MIC ([20]; MRSA, read-out: Range of MIC, Staph (Water)): 0.25 to 4 µg/mL (≈ 0.325 to 5.2 µM)
MIC ([20]; read-out: Minimum inhibitory concentration (MIC), Staph (Human Serum)): 0.25 to 2 µg/mL (≈ 0.325 to 2.6 µM)
MIC ([20]; read-out: Minimum inhibitory concentration (MIC), Staph (Water)): 0.25 to 4 µg/mL (≈ 0.325 to 5.2 µM)
SMILES: CN(C)c1cc(NC(=O)CN(C(=O)OCOC(=O)C2CCCCC2)C(C)(C)C)c(O)c2c1C[C@H]1C[C@H]3[C@H](N(C)C)C(O)=C(C(N)=O)C(=O)[C@@]3(O)C(O)=C1C2=O [Example 50, ({[(2-{[(5aR,6aS,7S,10aS)-9-(aminocarbonyl)-4,7-bis(dimethylamino)-1,8,10a,11-tetrahydroxy-10,12-dioxo-5,5a,6,6a,7,10,10a,12-octahydrotetracen-2-yl]amino}-2-oxoethyl)(tert-butyl)amino]carbonyl}oxy)methyl cyclohexanecarboxylate]
